Experimental data as given in patent publication US20250120943A1, “RIFAMYCIN OPHTHALMIC COMPOSITION AND USE THEREOF” (AMD THERAPEUTICS LLC, priority 2022, published 2025).
Marks after values point to notes of the source that are not given here.

Assays:
[1] = Retina exposure level of rifampicin after topical eye drops (LC/MS); type: in vivo, Sprague-Dawley rats; details: rat, topical eye drops 0.25% rifampicin (Ex. 1A), average of n = 3
Method: The remaining two rats received the same application, but 10 drops of the eye drops, in each eye under isoflurane sedation. A single drop contained 5 μL of the above-described formulation, and application of each drug drop was carried out with intervals of 30 minutes. After the eye drop application, the retina was excised from each rat under a dissection microscope. In addition, “non-treated” negative controls were used, and the retina was excised from two rats without performing any treatments on the rats. The retina was placed in a 1.5-ml microcentrifuge tube (1 retina/tube), and was fully washed with DPBS. After completion of the washing procedures, the retinal tissues in the microcentrifuge tube were frozen in dry ice, and were then preserved for quantification by LC/MS analysis.
At time points of 1 hour, 3 hours, and 7 hours after the application of the eye drops, the retinal tissues were excised from the rats under a dissection microscope. In addition, “non-treated” negative controls were used, and the retina was excised from one rat without performing any treatments on the rats. The retina was placed in a 1.5-ml microcentrifuge tube (1 retina/tube), and was fully washed with DPBS. After completion of the washing procedures, the retinal tissues in the microcentrifuge tube were frozen in dry ice, and were then preserved for quantification by LC/MS analysis. […]

[2] = test system: Neovascularization in retina of oxygen-induced retinopathy rat models; assay: Oxygen-induced retinopathy rat model, capillaries counted in histology sections; type: in vivo, Sprague-Dawley rat; details: vehicle only 16.3
[3] = test system: CNV induced in sub-retina tissues; assay: Mouse laser-induced CNV model, CNV area by FITC-dextran fluorescence; type: in vivo, C57BL/6J mice; details: for Average CNV area (%): n = 10, day 7, vehicle = 100
Method: Eyes of C57BL/6J mice were laser irradiated, and CNV were induced in sub-retina tissues in the eyes. […] In 7 days after the laser irradiation, a FITC-dextran solution was administered to the tail vein. The eyeballs were removed under euthanasia, and the removed eyeballs were fixed with 4% paraformaldehyde phosphate buffer. The cornea, iris and lens were excised, and retinal tissues other than retinal pigment epithelium cells were stripped using a microspacer. The optic cups were divided into 4 to 6 sections using a corneal microscissor, and they were placed on a slide glass. […] The CNV areas were quantified using ImageJ (TABLES 11-1 and 11-2; Image software publicly available by NIH).

[4] = Mouse pharmacokinetics after SC injection, sclera+sub-retina complex (LC/MS)
Method: This effective dosage and administration route was evaluated in dose escalation studies by using the mouse laser-induced CNV model. […] In 1 hr, 3 hr, 6 hr, and 18 hr after the SC injection, eyeballs were extracted. Tissue from the retina and tissue from the sclera+sub-retina complex were isolated and extracted. These tissues were immediately frozen in liquid nitrogen. The tissue was subjected to LC/MS analysis for quantitation. The detection limit was 0.25 ng/g tissue.

[5] = Rabbit, 0.5%, 50 μL, 250 μg; Sigurdsson et al. 2007; cited from earlier work

In the case of `CO[C@H]1/C=C/O[C@@]2(C)Oc3c(C)c(O)c4c(O)c(c(/C=N/N5CCN(C)CC5)c(O)c4c3C2=O)NC(=O)/C(C)=C\C=C\[C@H](C)[C@H](O)[C@@H](C)[C@@H](O)[C@@H](C)[C@H](OC(C)=O)[C@@H]1C` [Rifampicin, rifampicin], the “Rifampicin extracted from retina” value ([1]; 3 drops of 5 μL at 30 min intervals) is reported as 1,288* ng/1 g of tissues, the “Rifampicin extracted from retina” value ([1]; 10 drops of 5 μL at 30 min intervals) is reported as 2,939* ng/1 g of tissues and the “Average numbers of capillaries in high power field per eye” value ([2]; 0.25% rifampicin topical eye drop (Ex. 1A), three times daily P15-P19, n = 3, P value = 0.0058) is reported as 7.78. For the same compound, the “Average numbers of capillaries in high power field per eye” value ([2]; 0.5% rifampicin SC injection (Ex. 6A), 20 mg/kg once a day P15-P19, n = 3, P value = 0.0102) was 9.28, the “Dosage that significantly inhibited neovascularization (effective dosage)” value ([3]; SC injection, mouse laser-induced CNV model) was 0.7 mg/kg and the “Average CNV area (%)” value ([3]; SC once daily 0.2 mg/kg, P >0.05 (TABLE 11-1)) was 90.17%. The “Average CNV area (%)” value ([3]; SC once daily 0.7 mg/kg, P 0.003 (TABLE 11-2)) was 74.78%, the “Average CNV area (%)” value ([3]; SC once daily 0.7 mg/kg, P 0.045 (TABLE 11-1)) was 81.00% and the “Average CNV area (%)” value ([3]; SC once daily 2 mg/kg, P 0.011 (TABLE 11-2)) was 78.33%. The “Ave. rifampicin delivered to sclera + sub-retina complex” value ([4]; SC 0.7 mg/kg, 18 hr, detection limit 0.25 ng/g tissue) was “BDL” and the “Share of rifampicin in sub-retina+sclera complex delivered to the sub-retina” value ([4]; SC injection) was “approximately 70%”.
In the case of `C[C@@H]1C[C@H]2[C@@H]3CCC4=CC(=O)C=C[C@]4(C)[C@@]3(F)[C@@H](O)C[C@]2(C)[C@@]1(O)C(=O)CO` [Dexamethasone], the “Drug amount detected in retina” value [5] is listed as “About 33 ng/1 g ng/1 g of retinal tissues”.
